Experimental data from patent US20160297833A1, “THIENOPYRIMIDINES AS MKNK1 AND MKNK2 INHIBITORS” (BAYER PHARMA AKTIENGESELLSCHAFT, priority 2013, published 2016).

Biological target: T1, human full-length MKNK1 (Homo sapiens, UniProt Q9BUB5, T385D)
T1 construct: GST (N); purchased Carna Biosciences 02-145; host or cells: insect cells (baculovirus expression system)
Assay: MKNK1 kinase high ATP assay (TR-FRET)
Assay type: biochemical
Settings: for IC50: Table 1, MKNK1 kinase high ATP assay, 2 mM ATP, read-out: MKNK1 IC50
Procedure, shortened: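 Full-length human MKNK1 (T385D) preincubated 15 min at 22 °C with compound in HEPES pH 7.5/MgCl2/DTT buffer; reaction with 2 mM ATP (final) and 0.06 μM biotinylated peptide (final), 30 min at 22 °C.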

T1 sequence (Q9BUB5 1-424 isoform Q9BUB5-2 T344D): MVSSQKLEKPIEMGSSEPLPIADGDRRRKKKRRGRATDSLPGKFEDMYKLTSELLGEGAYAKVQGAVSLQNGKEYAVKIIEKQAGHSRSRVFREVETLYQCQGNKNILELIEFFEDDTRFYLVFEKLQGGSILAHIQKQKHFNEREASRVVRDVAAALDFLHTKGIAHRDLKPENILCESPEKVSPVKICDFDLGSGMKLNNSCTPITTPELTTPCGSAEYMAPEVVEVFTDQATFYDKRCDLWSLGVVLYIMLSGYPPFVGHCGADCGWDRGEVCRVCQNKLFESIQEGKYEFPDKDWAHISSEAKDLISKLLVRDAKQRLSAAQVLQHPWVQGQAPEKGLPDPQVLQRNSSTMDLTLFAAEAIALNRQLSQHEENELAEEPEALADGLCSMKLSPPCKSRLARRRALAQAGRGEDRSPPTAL

| SMILES | IC50 | Activity-Ratio MKNK1 (Table 2, ratio of the IC50-value of an R-enantiomer and its corresponding S-enantiomer) |
| --- | --- | --- |
| COCCN(C)C(=O)[C@H]1CCc2c(sc3ncnc(Nc4ccc5[nH]ncc5c4)c23)C1 [Example 13, (7S)-4-(1H-Indazol-5-ylamino)-N-(2-methoxyethyl)-N-methyl-5,6,7,8-tetrahydro[1]benzothieno[2,3-d]pyrimidine-7-carboxamide] | 3.2 nM | – |
| C[C@H]1CN(C(=O)[C@H]2CCc3c(sc4ncnc(Nc5cc6cn[nH]c6cc5Cl)c34)C2)C[C@H](C)O1 [Example 229, {(7S)-4-[(6-Chloro-1H-indazol-5-yl)amino]-5,6,7,8-tetrahydro[1]benzothieno[2,3-d]pyrimidin-7-yl}[(2S,6S)-2,6-dimethylmorpholin-4-yl]methanone] | 4.3 nM | – |
| O=C([C@H]1CCc2c(sc3ncnc(Nc4cc5cn[nH]c5cc4N4CCCC4)c23)C1)N1CCC1 [Example 195, Azetidin-1-yl[(7S)-4-{[6-(pyrrolidin-1-yl)-1H-indazol-5-yl]amino}-5,6,7,8-tetrahydro[1]benzothieno[2,3-d]pyrimidin-7-yl]methanone] | 0.9 nM | – |
| COc1cc2[nH]ncc2cc1Nc1ncnc2sc3c(c12)CC[C@@H](C(=O)N(C)CCO)C3 [Example 39, (7R)—N-(2-Hydroxyethyl)-4-[(6-methoxy-1H-indazol-5-yl)amino]-N-methyl-5,6,7,8-tetrahydro[1]benzothieno[2,3-d]pyrimidine-7-carboxamide] | 9.4 nM | – |
| CCCN(C)C(=O)[C@H]1CCc2c(sc3ncnc(Nc4cc5cn[nH]c5cc4OC)c23)C1 [Example 97, (7S)-4-[(6-methoxy-1H-indazol-5-yl)amino]-N-methyl-N-propyl-5,6,7,8-tetrahydro[1]benzothieno[2,3-d]pyrimidine-7-carboxamide] | 0.3 nM | – |
| CCOc1cc2[nH]ncc2cc1Nc1ncnc2sc3c(c12)CC[C@H](C(=O)N1CC[C@H](N(C)C)C1)C3 [Example 172, [(3S)-3-(Dimethylamino)pyrrolidin-1-yl]{(7S)-4-[(6-ethoxy-1H-indazol-5-yl)amino]-5,6,7,8-tetrahydro[1]benzothieno[2,3-d]pyrimidin-7-yl}methanone] | 0.1 nM | – |
| CC(C)Oc1cc2[nH]ncc2cc1Nc1ncnc2sc3c(c12)CC[C@H](C(=O)N1CC[C@@H](N(C)C)C1)C3 [Example 169, [(3R)-3-(Dimethylamino)pyrrolidin-1-yl][(7S)-4-{[6-(propan-2-yloxy)-1H-indazol-5-yl]amino}-5,6,7,8-tetrahydro[1]benzothieno[2,3-d]pyrimidin-7-yl]methanone] | 0.1 nM | – |
| COc1cc2[nH]ncc2cc1Nc1ncnc2sc3c(c12)CC[C@H](C(=O)N(C)C[C@@H](C)OC)C3 [Example 281, (7S)-4-[(6-Methoxy-1H-indazol-5-yl)amino]-N-[(2R)-2-methoxypropyl]-N-methyl-5,6,7,8-tetrahydro[1]benzothieno[2,3-d]pyrimidine-7-carboxamide] | 0.8 nM | – |
| CN(C)C(=O)[C@H]1CCc2c(sc3ncnc(Nc4cc5cn[nH]c5cc4OCCNCC(C)(C)C)c23)C1 [Example 275, (7S)-4-[(6-{2-[(2,2-Dimethylpropyl)amino]ethoxy}-1H-indazol-5-yl)amino]-N,N-dimethyl-5,6,7,8-tetrahydro[1]benzothieno[2,3-d]pyrimidine-7-carboxamide] | 4.4 nM | – |
| O=C([C@H]1CCc2c(sc3ncnc(Nc4ccc5[nH]ncc5c4)c23)C1)N1C[C@@H]2C[C@H]1CO2 [Example 10, [(7S)-4-(1H-Indazol-5-ylamino)-5,6,7,8-tetrahydro[1]benzothieno[2,3-d]pyrimidin-7-yl][(1S,4S)-2-oxa-5-azabicyclo[2.2.1]hept-5-yl]methanone] | 11.1 nM | – |
| CN(C)C1CCN(c2cc3[nH]ncc3cc2Nc2ncnc3sc4c(c23)CC[C@H](C(=O)N2CCOCC2)C4)CC1 [Example 133, [(7S)-4-({6-[4-(Dimethylamino)piperidin-1-yl]-1H-indazol-5-yl}amino)-5,6,7,8-tetrahydro[1]benzothieno[2,3-d]pyrimidin-7-yl](morpholin-4-yl)methanone] | 37.9 nM | – |
| CN(C)C(=O)[C@H]1CCc2c(sc3ncnc(Nc4cc5cn[nH]c5cc4OC4CCOCC4)c23)C1 [Example 200, (7S)—N,N-Dimethyl-4-{[6-(tetrahydro-2H-pyran-4-yloxy)-1H-indazol-5-yl]amino}-5,6,7,8-tetrahydro[1]benzothieno[2,3-d]pyrimidine-7-carboxamide] | 1.6 nM | – |
| O=C([C@H]1CCc2c(sc3ncnc(Nc4cc5cn[nH]c5cc4F)c23)C1)N1CC2CC2C1 (stereo partly drawn) [Example 220, 3-Azabicyclo[3.1.0]hex-3-yl{(7S)-4-[(6-fluoro-1H-indazol-5-yl)amino]-5,6,7,8-tetrahydro[1]benzothieno[2,3-d]pyrimidin-7-yl}methanone] | 4.3 nM | – |
| CC1(O)CN(C(=O)[C@H]2CCc3c(sc4ncnc(Nc5ccc6[nH]ncc6c5)c34)C2)C1 [Example 17, (3-Hydroxy-3-methylazetidin-1-yl)[(7S)-4-(1H-indazol-5-ylamino)-5,6,7,8-tetrahydro[1]benzothieno[2,3-d]pyrimidin-7-yl]methanone] | 9.4 nM | – |
| COc1cc2[nH]ncc2cc1Nc1ncnc2sc3c(c12)CC[C@H](C(=O)N1C[C@H](C)O[C@@H](C)C1)C3 [Example 210, [(2S,6S)-2,6-Dimethylmorpholin-4-yl]{(7S)-4-[(6-methoxy-1H-indazol-5-yl)amino]-5,6,7,8-tetrahydro[1]benzothieno[2,3-d]pyrimidin-7-yl}methanone] | 0.4 nM | – |
| CCN(C)C(=O)[C@H]1CCc2c(sc3ncnc(Nc4ccc5[nH]ncc5c4)c23)C1 [Example 4, (7S)—N-Ethyl-4-(1H-indazol-5-ylamino)-N-methyl-5,6,7,8-tetrahydro[1]benzothieno[2,3-d]pyrimidine-7-carboxamide] | 3.5 nM | – |
| COC(=O)NCCOc1cc2[nH]ncc2cc1Nc1ncnc2sc3c(c12)CC[C@H](C(=O)N(C)C)C3 [Example 258, Methyl {2-[(5-{[(7S)-7-(dimethylcarbamoyl)-5,6,7,8-tetrahydro[1]benzothieno[2,3-d]pyrimidin-4-yl]amino}-1H-indazol-6-yl)oxy]ethyl}carbamate] | 0.4 nM | – |
| CN(C)C(=O)[C@H]1CCc2c(sc3ncnc(Nc4cc5cn[nH]c5cc4OCCN)c23)C1 [Example 108, (7S)-4-{[6-(2-Aminoethoxy)-1H-indazol-5-yl]amino}-N,N-dimethyl-5,6,7,8-tetrahydro[1]benzothieno[2,3-d]pyrimidine-7-carboxamide] | 0.6 nM | – |
| C[C@@H]1COCCN1C(=O)[C@H]1CCc2c(sc3ncnc(Nc4cc5cn[nH]c5cc4OC[C@@H](C)N)c23)C1 [Example 150, {(7S)-4-[(6-{[(2R)-2-Aminopropyl]oxy}-1H-indazol-5-yl)amino]-5,6,7,8-tetrahydro[1]benzothieno[2,3-d]pyrimidin-7-yl}[(3R)-3-methylmorpholin-4-yl]methanone] | 7.3 nM | – |
| CN(C)C(=O)[C@H]1CCc2c(sc3ncnc(Nc4cc5cn[nH]c5cc4OCCCN=[N+]=[N-])c23)C1 [Example 110, (7S)-4-{[6-(3-Azidopropoxy)-1H-indazol-5-yl]amino}-N,N-dimethyl-5,6,7,8-tetrahydro[1]benzothieno[2,3-d]pyrimidine-7-carboxamide] | 2.3 nM | – |
| COC[C@@H](C)N(C)C(=O)[C@H]1CCc2c(sc3ncnc(Nc4cc5cn[nH]c5cc4OC)c23)C1 [Example 284, (7S)-4-[(6-Methoxy-1H-indazol-5-yl)amino]-N-[(2R)-1-methoxypropan-2-yl]-N-methyl-5,6,7,8-tetrahydro[1]benzothieno[2,3-d]pyrimidine-7-carboxamide] | 0.7 nM | – |
| CCN(C(=O)[C@H]1CCc2c(sc3ncnc(Nc4ccc5[nH]ncc5c4)c23)C1)C(C)C [Example 8, (7S)—N-Ethyl-4-(1H-indazol-5-ylamino)-N-(propan-2-yl)-5,6,7,8-tetrahydro[1]benzothieno[2,3-d]pyrimidine-7-carboxamide] | 8.3 nM | – |
| CN(C)C(=O)[C@H]1CCc2c(sc3ncnc(Nc4cc5cn[nH]c5cc4OCCNC(=O)OC(C)(C)C)c23)C1 [Example 165, tert-butyl {2-[(5-{[(7S)-7-(dimethylcarbamoyl)-5,6,7,8-tetrahydro[1]benzothieno[2,3-d]pyrimidin-4-yl]amino}-1H-indazol-6-yl)oxy]ethyl}carbamate] | 0.2 nM | – |
| C[C@@H]1CN(C(=O)[C@H]2CCc3c(sc4ncnc(Nc5cc6cn[nH]c6cc5N5CCC(N(C)C)CC5)c34)C2)C[C@H](C)O1 [Example 137, [(7S)-4-({6-[4-(Dimethylamino)piperidin-1-yl]-1H-indazol-5-yl}amino)-5,6,7,8-tetrahydro[1]benzothieno[2,3-d]pyrimidin-7-yl][(2R,6S)-2,6-dimethylmorpholin-4-yl]methanone] | 33 nM | – |
| CN(C)C(=O)[C@H]1CCc2c(sc3ncnc(Nc4cc5cn[nH]c5cc4OCCN4CCCC4)c23)C1 [Example 112, (7S)—N,N-Dimethyl-4-({6-[2-(pyrrolidin-1-yl)ethoxy]-1H-indazol-5-yl}amino)-5,6,7,8-tetrahydro[1]benzothieno[2,3-d]pyrimidine-7-carboxamide] | 76.3 nM | – |
| CCN(CCO)C(=O)[C@H]1CCc2c(sc3ncnc(Nc4cc5cn[nH]c5cc4OC)c23)C1 [Example 40, (7S)—N-Ethyl-N-(2-hydroxyethyl)-4-[(6-methoxy-1H-indazol-5-yl)amino]-5,6,7,8-tetrahydro[1]benzothieno[2,3-d]pyrimidine-7-carboxamide] | 0.2 nM | 45.9 |
| CN(CC(F)(F)F)C(=O)[C@H]1CCc2c(sc3ncnc(Nc4ccc5[nH]ncc5c4)c23)C1 [Example 5, (7S)-4-(1H-Indazol-5-ylamino)-N-methyl-N-(2,2,2-trifluoroethyl)-5,6,7,8-tetrahydro[1]benzothieno[2,3-d]pyrimidine-7-carboxamide] | 18.3 nM | – |
